Laboratory results: patent US20230193197A1, “TUNABLE PLANT-BASED MATERIALS VIA IN VITRO CELL CULTURE USING A ZINNIA ELEGANS MODEL” (FORAY Bioscience, Inc., priority 2021, published 2023)

Test system: Z. elegans cells
Assay: Full factorial hormone concentration experiment in liquid culture (live fraction, lignification, enlargement, elongation metrics)
Assay type: cell-based, Zinnia elegans
Details: for cumulative levels of lignification / live fraction at day 12: NAA at 0.5 mg ml^-1 together with BAP at 1 mg ml^-1, compared across 16 hormone combinations
Procedure: In an embodiment, Z. elegans cells may be isolated by the maceration of young Zinnia leaves (e.g., leaves 114). Leaves collected from approximately 14 day-old Zinnia plants may be rinsed under running tap water for 5 min. Leaves may be sterilized in a solution of 5 ml commercial bleach (Clorox), 95 ml of deionized water, and […] of Tween 20 (Sigma Aldrich) for 5 min. Subsequently, leaves may be rinsed thoroughly with sterile distilled water, sliced into strips, and ground between the surfaces of a small sieve and a spoon (e.g., a stainless steel spoon). The leaf matter may be intermittently rinsed with ZE-M media and the rinsate may be collected in a bowl positioned beneath the supporting sieve. After completion of grinding, the rinsate may be collected and filtered through a […] cell strainer (e.g., manufactured by Fisher Scientific) to remove large debris. This strainer is just but an example and should not be considered limiting. The filtered solution may be centrifuged at 100 g for 8 min and resulting supernatant removed if more concentrated cell solutions are desired. Liquid cultures may be maintained at concentrations between 250,000 and 500,000 cells ml^−1 at 3 ml per well in a 6-well plate wrapped in parafilm. Cultures may be maintained at 22° C. in the dark on an orbital shaker operating at 80 rpm.
Cells may be cultured in this manner for 48 hours in the low-hormone media before transference to specialized experimental media. An incubation period may improve differentiation rates when cells may be later exposed to elevated levels of auxin and cytokinin. Auxins may be plant hormones produced in the stem tip that promote cell elongation. Cytokinins may be a class of plant hormones that promote cell division, or cytokinesis. For dispersed gel cultures, cells may be extracted and maintained in low-hormone, liquid medium for a 48 hour acclimation period, as previously described, prior to transference to a gel medium 108 solidified by the addition of Gelzan C M (e.g., manufactured by Sigma Aldrich) at a final concentration of 3 g L^−1. Cultures may be sealed off with parafilm and maintained at 22° C. in the dark.
For liquid cultures, well-mixed […] aliquots of cell suspension may be transferred to 48 well plates for imaging. A […] volume of a fluorescein diacetate (FDA) stock solution (prepared at 2 mg ml^−1 acetone) may be added to the cell suspension and incubated in the dark for 20 min. After the incubation period, […] of calcofluor white (CW) may be added and the solution rested for an additional 5 min prior to imaging. A Zeiss LSM780 confocal microscope, for example, may be set to excitation/emission wavelengths of […]/440 nm (DAPI filter) for CW and 490 nm/526 nm for FDA for imaging. Gel cultures may be stained through a similar dual-step process after wetting the gel surface with a small amount of liquid medium. Relative staining volumes may be the same, but increased incubation times may be involved (e.g., incubation times were approximately 45 min for FDA incubation, 45 min for CW incubation). Image analysis may be performed using Image-i. The thresholding tool may be used to select the relevant cell areas. To ensure robustness of the analyzed data ranges, the images corresponding to the highest and lowest values for a single sample may be analyzed a total of 3 times, with the repeated results averaged to yield a final value for the given image. […]

| Compound | elongation metric (BAP elevated, across most NAA concentrations) | cumulative levels of lignification | live fraction at day 12 |
| --- | --- | --- | --- |
| c1ccc(CNc2ncnc3nc[nH]c23)cc1 [BAP, 6-benzylaminopurine] | reduced | highest | lowest |
| O=C(O)Cc1cccc2ccccc12 [NAA, a-naphthaleneacetic acid] | – | highest | lowest |
